{"source": "patent US12145925B2", "about": "“Phthalazine derivatives as inhibitors of PARP1, PARP2, and/or tubulin useful for the treatment of cancer” (THE REGENTS OF THE UNIVERSITY OF CALIFORNIA, priority 2016, dated 2024)", "biological_target": "T1, PARP2 (Homo sapiens, UniProt Q9UGN5)", "T1 construct": "purchased BPS Bioscience 80552", "T1 sequence (Q9UGN5 whole entry)": "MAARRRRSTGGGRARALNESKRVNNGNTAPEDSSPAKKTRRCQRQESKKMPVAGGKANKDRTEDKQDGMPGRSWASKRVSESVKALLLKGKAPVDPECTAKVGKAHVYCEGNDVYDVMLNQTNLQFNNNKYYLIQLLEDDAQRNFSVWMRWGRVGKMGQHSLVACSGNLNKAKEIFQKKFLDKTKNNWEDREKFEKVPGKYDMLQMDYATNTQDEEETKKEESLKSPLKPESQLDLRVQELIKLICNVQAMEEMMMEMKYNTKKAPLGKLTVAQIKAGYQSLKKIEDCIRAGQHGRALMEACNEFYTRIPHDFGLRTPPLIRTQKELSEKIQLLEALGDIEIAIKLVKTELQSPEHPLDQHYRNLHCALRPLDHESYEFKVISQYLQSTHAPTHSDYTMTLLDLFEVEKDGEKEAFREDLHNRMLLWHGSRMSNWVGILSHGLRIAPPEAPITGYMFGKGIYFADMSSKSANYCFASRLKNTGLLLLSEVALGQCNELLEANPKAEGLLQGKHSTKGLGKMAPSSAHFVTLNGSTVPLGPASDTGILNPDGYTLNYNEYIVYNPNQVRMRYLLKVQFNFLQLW", "assay": "PARP2 enzymatic activity inhibition (BPS Bioscience PARP2 Assay Kit)", "type": "biochemical", "details": "incorporation of biotinylated poly(ADP-ribose) onto histone proteins", "procedure": "The half maximal inhibitory concentration (IC50) with respect to PARP2 inhibition was determined for each test compound by using BPS Bioscience PARP2 Assay Kit, according to the manufacturer's protocol (Cat #80552, San Diego, CA). This assay measures the incorporation of biotinylated poly(ADP-ribose) onto histone proteins in a 96-well strip well format. This assay is ideal for the determination of IC50 values of known or suspected PARP inhibitors. Briefly, stock solutions of each test compound were prepared in DMSO. Histone strip wells were incubated for 30 minutes at room temperature with 50 μl/well of 1×PARP Buffer to rehydrate the histones. Serial dilutions of either test compound were added to appropriate wells. Diluted PARP enzyme (0.5 Unit/well) was then added to the wells containing compounds, and incubated for 10 minutes at room temperature. […] Three types of control wells were also analyzed; i. A negative control without PARP was prepared to determine background absorbance. ii. […] The reactions were then stopped by adding 50 μl per well of 0.2M HCl or 5% Phosphoric Acid and read the absorbance at 450 nm. The IC50 values were determined by performing non-linear regression analysis fitting velocities and the logarithm of inhibitor concentrations to a sigmoidal dose response with a variable slope model using the GraphPad Prism 6.0 software. […]", "data": [{"smiles": "COC(=O)Nc1nc2cc(-c3cc(Cc4n[nH]c(=O)c5ccccc45)ccc3F)ccc2[nH]1", "note": "[Ex 1.1, methyl (5-(2-fluoro-5-((4-oxo-3,4-dihydrophthalazin-1-yl)methyl)phenyl)-1H-benzimidazol-2-yl)carbamate]", "values": [{"measurement": "IC50", "value": 0.05, "unit": "nM"}]}]}
